Results: ChEMBL document CHEMBL1124032, “Quantitative structure-activity relationships for the inhibition of Escherichia coli dihydrofolate reductase by 5-(substituted benzyl)-2,4-diaminopyrimidines” (1988)

Tests used:
[1] = biological target: T1, Dihydrofolate reductase (Escherichia coli) (UniProt P0ABQ4)
T1 sequence (whole entry): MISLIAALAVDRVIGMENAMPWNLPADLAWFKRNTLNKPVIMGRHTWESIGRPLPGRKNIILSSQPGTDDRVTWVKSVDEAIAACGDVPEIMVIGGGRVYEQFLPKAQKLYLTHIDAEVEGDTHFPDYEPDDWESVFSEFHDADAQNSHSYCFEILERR
Description: Apparent inhibitory (log 1/Ki) activity against Escherichia coli dihydrofolate reductase

Escherichia coli [2] = experiment: The logarithm of the inverse of the concentration (log 1/C) for the inhibition of Escherichia coli MB 1428 growth by 80%; format: functional
Escherichia coli [3] = experiment: The logarithm of the inverse of the concentration (log 1/C) for the inhibition of Escherichia coli 1515 (Escherichia coli) growth by 80%; format: functional

| Log 1/Ki app [1] | SMILES | Log 1/C (Escherichia coli [2]) | Log 1/C (Escherichia coli [3]) |
| --- | --- | --- | --- |
| 8.96 | CCCOc1cc(Cc2cnc(N)nc2N)cc(Br)c1OC | 6.07 | 4.91 |
| 9.05 | COc1cc(Cc2cnc(N)nc2N)ccc1O | 3.51 | 6.45 |
| 8.96 | COc1ccc(Cc2cnc(N)nc2N)cc1OS(C)(=O)=O | 4.13 | 6.42 |
| 8.15 | CS(=O)(=O)Oc1ccc(Cc2cnc(N)nc2N)cc1 | – | – |
| 9.01 | CCCCOc1ccc(Cc2cnc(N)nc2N)cc1OC | 4.98 | 5.93 |
| 9.43 | COc1cc(Cc2cnc(N)nc2N)ccc1OCc1ccccc1 | 5.02 | 4.96 |
| 6.2 | Nc1ncc(Cc2ccc([N+](=O)[O-])cc2)c(N)n1 | – | – |
| 8.8 | CCCOc1cc(Cc2cnc(N)nc2N)cc(OCCC)c1 | – | – |
| 9.25 | COCCOc1ccc(Cc2cnc(N)nc2N)cc1OC | 4.3 | 5.82 |
| 8.96 | CCCCOc1cc(Cc2cnc(N)nc2N)cc(Br)c1OC | 6.24 | 5.02 |
| 6.57 | Nc1ncc(Cc2ccc(OC(F)(F)F)cc2)c(N)n1 | – | – |
| 8.05 | Cc1cc(C)cc(Cc2cnc(N)nc2N)c1 | – | – |
| 8.77 | Nc1ncc(Cc2cc(OCc3ccccc3)cc(OCc3ccccc3)c2)c(N)n1 | – | – |
| 8.74 | COCCOc1cc(Cc2cnc(N)nc2N)ccc1OC | – | – |
| 6.97 | CC(=O)Nc1ccc(Cc2cnc(N)nc2N)cc1[N+](=O)[O-] | – | – |
| 6.92 | CS(=O)(=O)Oc1cccc(Cc2cnc(N)nc2N)c1 | – | – |
| 10 | COc1ccc(Cc2cnc(N)nc2N)cc1OCc1ccccc1 | 5.02 | 4.96 |
| 7.69 | COc1ccc(Cc2cnc(N)nc2N)cc1C(F)(F)F | – | – |
| 8.49 | CCCOc1cc(Cc2cnc(N)nc2N)cc(OCC)c1 | – | – |
| 9.11 | CCOc1cc(Cc2cnc(N)nc2N)cc(OCC)c1 | 4.77 | 6.54 |

| SMILES | Log 1/Ki app [1] | Log 1/C (Escherichia coli [2]) | Log 1/C (Escherichia coli [3]) |
| --- | --- | --- | --- |
| Nc1ncc(Cc2ccc(OCc3ccccc3)cc2)c(N)n1 | 8.7 | – | – |
